Paper PMC2706530 (Hypertension, 2009)
Each block holds one compound with its values, some of them ahead of it.

Assays:
Type in all cases: biochemical
aminopeptidase-A = aminopeptidase-A (Rattus norvegicus, UniProt P50123); assay: Effect of APA inhibitor on ANG-I conversion by isolated rat glomeruli; settings: 100 μM amastatin, 1 μM ANG-I
ANG-II type 1-receptor = assay: Effect of losartan pre-incubation on ANG-II detection in isolated rat glomeruli; settings: pre-incubation with 10 μM losartan, 1 μM ANG-I; data not shown
neprilysin = molecular target: T1, neprilysin (Rattus norvegicus, UniProt P07861); assay: Effect of NEP inhibitor on ANG-I conversion by isolated rat glomeruli; settings: 10 μM thiorphan, 1 μM ANG-I, 15-90 minutes; p < 0.05 vs. untreated; n=7
T1 sequence (P07861 1-750): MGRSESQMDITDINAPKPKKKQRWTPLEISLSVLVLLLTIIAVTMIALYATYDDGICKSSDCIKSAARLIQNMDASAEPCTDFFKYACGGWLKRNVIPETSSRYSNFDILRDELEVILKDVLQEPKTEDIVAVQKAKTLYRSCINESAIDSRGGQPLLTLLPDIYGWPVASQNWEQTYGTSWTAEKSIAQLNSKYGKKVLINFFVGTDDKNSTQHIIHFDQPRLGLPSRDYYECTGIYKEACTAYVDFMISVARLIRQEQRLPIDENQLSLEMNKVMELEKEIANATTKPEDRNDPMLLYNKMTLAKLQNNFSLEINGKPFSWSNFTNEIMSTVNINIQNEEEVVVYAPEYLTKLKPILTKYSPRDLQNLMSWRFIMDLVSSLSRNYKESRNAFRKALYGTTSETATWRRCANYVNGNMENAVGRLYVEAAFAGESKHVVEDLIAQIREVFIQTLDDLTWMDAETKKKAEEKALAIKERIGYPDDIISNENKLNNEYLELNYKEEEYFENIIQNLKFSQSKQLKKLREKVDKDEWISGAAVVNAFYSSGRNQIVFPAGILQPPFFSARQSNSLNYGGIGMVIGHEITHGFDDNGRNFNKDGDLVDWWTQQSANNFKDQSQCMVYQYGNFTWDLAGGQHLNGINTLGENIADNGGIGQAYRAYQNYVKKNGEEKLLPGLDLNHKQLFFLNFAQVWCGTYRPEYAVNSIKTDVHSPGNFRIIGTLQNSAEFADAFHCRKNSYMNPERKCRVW

Chain of aminopeptidase-A (P50123 whole entry): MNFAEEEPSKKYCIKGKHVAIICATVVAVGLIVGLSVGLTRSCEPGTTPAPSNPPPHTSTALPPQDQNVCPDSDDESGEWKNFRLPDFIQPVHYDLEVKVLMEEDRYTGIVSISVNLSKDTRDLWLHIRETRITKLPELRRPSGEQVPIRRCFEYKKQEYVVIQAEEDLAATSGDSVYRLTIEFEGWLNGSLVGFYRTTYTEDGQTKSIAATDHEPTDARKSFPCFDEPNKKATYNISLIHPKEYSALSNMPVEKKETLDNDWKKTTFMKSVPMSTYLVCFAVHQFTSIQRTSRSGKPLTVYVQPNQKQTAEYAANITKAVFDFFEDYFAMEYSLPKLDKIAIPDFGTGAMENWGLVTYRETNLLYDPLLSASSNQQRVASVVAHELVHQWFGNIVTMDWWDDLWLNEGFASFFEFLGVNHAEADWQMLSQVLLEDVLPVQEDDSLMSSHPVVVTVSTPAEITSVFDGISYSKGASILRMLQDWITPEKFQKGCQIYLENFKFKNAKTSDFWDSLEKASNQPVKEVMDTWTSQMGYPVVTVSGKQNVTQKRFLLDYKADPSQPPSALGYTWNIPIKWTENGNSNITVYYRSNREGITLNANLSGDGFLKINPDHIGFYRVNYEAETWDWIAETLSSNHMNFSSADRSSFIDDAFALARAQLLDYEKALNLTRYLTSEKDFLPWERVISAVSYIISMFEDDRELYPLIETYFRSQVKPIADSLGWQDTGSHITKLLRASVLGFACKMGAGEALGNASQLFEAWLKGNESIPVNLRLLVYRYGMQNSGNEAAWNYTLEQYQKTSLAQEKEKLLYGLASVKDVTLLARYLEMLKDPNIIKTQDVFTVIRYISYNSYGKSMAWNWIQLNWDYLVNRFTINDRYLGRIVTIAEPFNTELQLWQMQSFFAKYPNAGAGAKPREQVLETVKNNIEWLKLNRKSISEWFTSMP

- effect on disappearance of ANG-I (APA inhibition) (aminopeptidase-A; 15-90 minutes, p < 0.05 vs. untreated, n=7): significantly reduced
- change in ANG-II, amastatin-treated (aminopeptidase-A; 60 minutes): non-significant increase
Compound: CC(C)C[C@@H](N)[C@H](O)C(=O)N[C@H](C(=O)N[C@H](C(=O)N[C@@H](CC(=O)O)C(=O)O)C(C)C)C(C)C [amastatin]

Compound: CCCCc1nc(Cl)c(CO)n1Cc1ccc(-c2ccccc2-c2nn[nH]n2)cc1 [losartan]
- effect on detection of ANG-II (ANG-II type 1-receptor): did not enhance the detection of ANG-II

- effect on disappearance of ANG-I (NEP inhibition) (neprilysin): significantly reduced
Compound: O=C(O)CNC(=O)C(CS)Cc1ccccc1 (stereo not shown) [thiorphan]
